Experimental data reported in US11572398B2, “GLP-1 derivatives and uses thereof” (Novo Nordisk A/S, priority 2014, dated 2023).
Like-named read-outs stand apart in the source and are kept apart here.

Key:
[1] = molecular target: T1, human GLP-1 receptor (Homo sapiens, UniProt P43220); assay: GLP-1 receptor binding: competitive binding assay (125I-GLP-1, SPA) on isolated membranes at low and high HSA
T1 construct: expressed in transfected cells; host or cells: BHK cells (parent line BHKTS13), clone FCW467-12A; membrane preparation
T1 sequence (P43220 24-463): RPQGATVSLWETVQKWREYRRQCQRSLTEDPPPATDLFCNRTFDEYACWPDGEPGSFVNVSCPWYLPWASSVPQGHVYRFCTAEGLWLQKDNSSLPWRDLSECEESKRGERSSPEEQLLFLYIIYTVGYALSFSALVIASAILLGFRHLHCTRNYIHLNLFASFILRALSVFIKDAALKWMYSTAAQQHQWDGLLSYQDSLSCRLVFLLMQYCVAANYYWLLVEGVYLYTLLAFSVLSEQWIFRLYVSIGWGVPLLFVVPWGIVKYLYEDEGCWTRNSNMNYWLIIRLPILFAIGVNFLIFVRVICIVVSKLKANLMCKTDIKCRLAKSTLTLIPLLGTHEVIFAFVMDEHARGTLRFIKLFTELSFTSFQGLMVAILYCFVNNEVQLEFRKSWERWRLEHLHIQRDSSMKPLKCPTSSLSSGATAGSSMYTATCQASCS

[2] = molecular target: T1, human GLP-1 receptor; assay: In vitro potency: CRE luciferase reporter gene assay in BHK cells expressing the human GLP-1 receptor; assay type: cell-based
Summary of the method: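 Whole-cell assay in stably transfected BHK cells carrying CRE-driven firefly luciferase, 5×10^3 cells/well, in assay buffer with 2% ovalbumin and 0.2% Pluronic F-68. Compound working solutions were 0.2 μM.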

[3] = Low HSA IC50, low HSA (max. 0.001% final assay concentration)
[4] = high HSA (2.0% final assay concentration), read-out: High HSA IC50
[5] = whole cell reporter gene assay, BHK cells, human GLP-1 receptor, average of at least two replicates, read-out: EC50

With `CC[C@H](C)[C@H](NC(=O)[C@H](Cc1ccccc1)NC(=O)[C@H](CCC(=O)O)NC(=O)[C@H](CCCNC(=N)N)NC(=O)[C@H](C)NC(=O)[C@H](C)NC(=O)[C@H](CCC(N)=O)NC(=O)[C@H](CCC(=O)O)NC(=O)[C@H](CCC(=O)O)NC(=O)[C@H](CC(C)C)NC(=O)[C@H](Cc1ccc(O)cc1)NC(=O)[C@H](CO)NC(=O)[C@H](CO)NC(=O)[C@@H](NC(=O)[C@H](CC(=O)O)NC(=O)[C@H](CO)NC(=O)[C@@H](NC(=O)[C@H](Cc1ccccc1)NC(=O)[C@@H](NC(=O)CNC(=O)[C@H](CCC(=O)O)NC(=O)C(C)(C)NC(=O)[C@@H](N)Cc1c[nH]cn1)[C@@H](C)O)[C@@H](C)O)C(C)C)C(=O)N[C@@H](C)C(=O)N[C@@H](Cc1c[nH]c2ccccc12)C(=O)N[C@@H](CC(C)C)C(=O)N[C@H](C(=O)N[C@@H](CCCNC(=N)N)C(=O)NCC(=O)N[C@@H](CCCNC(=N)N)C(=O)N[C@@H](CCCCNC(=O)CN(CCCNC(=O)COCCOCCNC(=O)COCCOCCNC(=O)COCCOCCNC(=O)COCCOCCNC(=O)COCCOCCNC(=O)COCCOCCNC(=O)CC[C@H](NC(=O)[C@H]1CC[C@H](CNC(=O)CCCNC(=O)CCCCCCCCCCCCCCCS(=O)(=O)O)CC1)C(=O)O)CCCNC(=O)COCCOCCNC(=O)COCCOCCNC(=O)COCCOCCNC(=O)COCCOCCNC(=O)COCCOCCNC(=O)COCCOCCNC(=O)CC[C@H](NC(=O)[C@H]1CC[C@H](CNC(=O)CCCNC(=O)CCCCCCCCCCCCCCCS(=O)(=O)O)CC1)C(=O)O)C(=O)O)C(C)C` [Example 21] the IC50 ([1]; High HSA IC50, high HSA (2.0% final assay concentration)) was 16 nM, the IC50 [1, 3] was 0.13 nM and the EC50 [2] was 0.0015 nM.
`CC[C@H](C)[C@H](NC(=O)[C@H](Cc1ccccc1)NC(=O)[C@H](CCC(=O)O)NC(=O)[C@H](CCCNC(=N)N)NC(=O)[C@H](C)NC(=O)[C@H](C)NC(=O)[C@H](CCC(N)=O)NC(=O)[C@H](CCC(=O)O)NC(=O)[C@H](CCC(=O)O)NC(=O)[C@H](CC(C)C)NC(=O)[C@H](Cc1ccc(O)cc1)NC(=O)[C@H](CO)NC(=O)[C@H](CO)NC(=O)[C@@H](NC(=O)[C@H](CC(=O)O)NC(=O)[C@H](CO)NC(=O)[C@@H](NC(=O)[C@H](Cc1ccccc1)NC(=O)[C@@H](NC(=O)CNC(=O)[C@H](CCC(=O)O)NC(=O)C(C)(C)NC(=O)[C@@H](N)Cc1c[nH]cn1)[C@@H](C)O)[C@@H](C)O)C(C)C)C(=O)N[C@@H](C)C(=O)N[C@@H](Cc1c[nH]c2ccccc12)C(=O)N[C@@H](CC(C)C)C(=O)N[C@H](C(=O)N[C@@H](CCCNC(=N)N)C(=O)NCC(=O)N[C@@H](CCCNC(=N)N)C(=O)N[C@@H](CCCCNC(=O)CN(CCCNC(=O)COCCOCCNC(=O)COCCOCCNC(=O)COCCOCCNC(=O)COCCOCCNC(=O)CC[C@H](NC(=O)[C@H]1CC[C@H](CNC(=O)CCCCCCCCCCCCCCCS(=O)(=O)O)CC1)C(=O)O)CCCNC(=O)COCCOCCNC(=O)COCCOCCNC(=O)COCCOCCNC(=O)COCCOCCNC(=O)CC[C@H](NC(=O)[C@H]1CC[C@H](CNC(=O)CCCCCCCCCCCCCCCS(=O)(=O)O)CC1)C(=O)O)C(=O)O)C(C)C` [Example 22, N{Epsilon-37}-[2-[bis[3-[[2-[2-[2-[[2-[2-[2-[[2-[2-[2-[[2-[2-[2-[[(4S)-4-carboxy-4-[[4-[(16-sulfohexadecanoylamino)methyl]cyclohexanecarbonyl]amino]butanoyl]amino]ethoxy]ethoxy]acetyl]amino]ethoxy]ethoxy]acetyl]amino]ethoxy]ethoxy]acetyl]amino]ethoxy]ethoxy]acetyl]amino]propyl]amino]acetyl]-[Aib8,Glu22,Arg26,Arg34,Lys37]-GLP-1-(7-37)-peptide] gave an IC50 [1, 3] of 0.12 nM, an IC50 [1, 4] of 47 nM and an EC50 [2, 5] of 0.0016 nM.
With `CC[C@H](C)[C@H](NC(=O)[C@H](Cc1ccccc1)NC(=O)[C@H](CCC(=O)O)NC(=O)[C@H](CCCNC(=N)N)NC(=O)[C@H](C)NC(=O)[C@H](C)NC(=O)[C@H](CCC(N)=O)NC(=O)[C@H](CCC(=O)O)NC(=O)[C@H](CCC(=O)O)NC(=O)[C@H](CC(C)C)NC(=O)[C@H](Cc1ccc(O)cc1)NC(=O)[C@H](CO)NC(=O)[C@H](CO)NC(=O)[C@@H](NC(=O)[C@H](CC(=O)O)NC(=O)[C@H](CO)NC(=O)[C@@H](NC(=O)[C@H](Cc1ccccc1)NC(=O)[C@@H](NC(=O)CNC(=O)[C@H](CCC(=O)O)NC(=O)C(C)(C)NC(=O)[C@@H](N)Cc1c[nH]cn1)[C@@H](C)O)[C@@H](C)O)C(C)C)C(=O)N[C@@H](C)C(=O)N[C@@H](Cc1c[nH]c2ccccc12)C(=O)N[C@@H](CC(C)C)C(=O)N[C@H](C(=O)N[C@@H](CCCNC(=N)N)C(=O)NCC(=O)N[C@@H](CCCNC(=N)N)C(=O)N[C@@H](CCCCNC(=O)CN(CCCNC(=O)COCCOCCNC(=O)COCCOCCNC(=O)COCCOCCNC(=O)COCCOCCNC(=O)COCCOCCNC(=O)CC[C@H](NC(=O)[C@H]1CC[C@H](CNC(=O)CCCCCCCCCCCCCCCS(=O)(=O)O)CC1)C(=O)O)CCCNC(=O)COCCOCCNC(=O)COCCOCCNC(=O)COCCOCCNC(=O)COCCOCCNC(=O)COCCOCCNC(=O)CC[C@H](NC(=O)[C@H]1CC[C@H](CNC(=O)CCCCCCCCCCCCCCCS(=O)(=O)O)CC1)C(=O)O)C(=O)O)C(C)C` [Example 23, N{Epsilon-37}-[2-[bis[3-[[2-[2-[2-[[2-[2-[2-[[2-[2-[2-[[2-[2-[2-[[2-[2-[2-[[(4S)-4-carboxy-4-[[4-[(16-sulfohexadecanoylamino)methyl]cyclohexanecarbonyl]amino]butanoyl]amino]ethoxy]ethoxy]acetyl]amino]ethoxy]ethoxy]acetyl]amino]ethoxy]ethoxy]acetyl]amino]ethoxy]ethoxy]acetyl]amino]ethoxy]ethoxy]acetyl]amino]propyl]amino]acetyl]-[Aib8,Glu22,Arg26,Arg34,Lys37]-GLP-1-(7-37)-peptide] the IC50 [1, 3] was 0.14 nM, the IC50 [1, 4] was 16 nM and the EC50 [2, 5] was 0.0014 nM.
`CC[C@H](C)[C@H](NC(=O)[C@H](Cc1ccccc1)NC(=O)[C@H](CCC(=O)O)NC(=O)[C@H](CCCNC(=N)N)NC(=O)[C@H](C)NC(=O)[C@H](C)NC(=O)[C@H](CCC(N)=O)NC(=O)[C@H](CCC(=O)O)NC(=O)[C@H](CCC(=O)O)NC(=O)[C@H](CC(C)C)NC(=O)[C@H](Cc1ccc(O)cc1)NC(=O)[C@H](CO)NC(=O)[C@H](CO)NC(=O)[C@@H](NC(=O)[C@H](CC(=O)O)NC(=O)[C@H](CO)NC(=O)[C@@H](NC(=O)[C@H](Cc1ccccc1)NC(=O)[C@@H](NC(=O)CNC(=O)[C@H](CCC(=O)O)NC(=O)C(C)(C)NC(=O)[C@@H](N)Cc1c[nH]cn1)[C@@H](C)O)[C@@H](C)O)C(C)C)C(=O)N[C@@H](C)C(=O)N[C@@H](Cc1c[nH]c2ccccc12)C(=O)N[C@@H](CC(C)C)C(=O)N[C@H](C(=O)N[C@@H](CCCNC(=N)N)C(=O)NCC(=O)N[C@@H](CCCNC(=N)N)C(=O)N[C@@H](CCCCNC(=O)CN(CCCNC(=O)COCCOCCNC(=O)COCCOCCNC(=O)COCCOCCNC(=O)COCCOCCNC(=O)COCCOCCNC(=O)COCCOCCNC(=O)CC[C@H](NC(=O)[C@H]1CC[C@H](CNC(=O)CCCCCCCCCCCCCCCS(=O)(=O)O)CC1)C(=O)O)CCCNC(=O)COCCOCCNC(=O)COCCOCCNC(=O)COCCOCCNC(=O)COCCOCCNC(=O)COCCOCCNC(=O)COCCOCCNC(=O)CC[C@H](NC(=O)[C@H]1CC[C@H](CNC(=O)CCCCCCCCCCCCCCCS(=O)(=O)O)CC1)C(=O)O)C(=O)O)C(C)C` [Example 24] was tested, and the IC50 [1, 3] was 0.16 nM, the IC50 [1, 4] was 32 nM and the EC50 [2, 5] was 0.0018 nM.
